Laboratory results reported in patent US4174402A, “Method for the prophylaxis of SRS-A-induced symptoms” (priority 1978, dated 1979).
Several values for one entry are separate records, joined by “and”; a condition that tells them apart may be missing. Identical values can stand only once. Entries after “also recorded” stand apart in the source; their conditions may differ. Like-named read-outs stand apart in the source and are kept apart here.

Legend:
[1] = Oral toxicity, 5 weeks, Charles River CD albino rats; type: in vivo, rat
bradykinin [2] = test system: bradykinin
Description: (§1) Antagonism of bradykinin-induced bronchoconstriction in guinea pigs was determined by measuring increases in resistance to artificial pulmonary inflation (Konzett-Rossler preparation). […] Due to large variations in bronchoconstricting responses among individual guinea pigs, each guinea pig serves as its own control and was challenged with bradykinin twice. The second response to bradykinin was expressed as percent of the first response to bradykinin. […] All guinea pigs having a first bradykinin response of less than 12 mm Hg were rejected as poor responders. […] In order to augment the bronchoconstrictor response, each guinea pig received 100 mcg propranolol/kg, iv, 5 minutes before the first injection of bradykinin (30 mcg/kg, iv). […] Five minutes after the injection of a test compound the guinea pigs received the second injection of bradykinin and the peak of the response determined. The effects of both test compounds were expressed as % inhibition of bradykinin-induced increase in bronchial resistance to forced inflation, as compared to the levels of bronchial resistance following iv administration of their respective solvent controls.

[3] = Oral toxicity, 5 weeks, rhesus monkeys; type: in vivo, rhesus monkey
Description: The oral toxicity of compound b at doses of 5.0, 32.0, 75.0 and 200 mg/kg/day for 5 weeks was studied in rhesus monkeys.

SRS-A [4] = test: Test Procedure 4: competitive antagonism to SRS-A in anesthetized guinea pigs; type: in vivo, guinea pig
Description: The intratracheal pressure (ITP) of anesthetized, artificially respired guinea pigs (Konzett-Rossler preparation) was monitored and peak increases in ITP recorded. The basic methodology was the same as that described hereinabove for Test Procedure 2 except that the basic experimental unit was not two guinea pigs (medicated and control) but three guinea pigs examined in an uninterrupted sequence: a control guinea pig receiving the standard dose of SRS-A, a medicated guinea pig receiving the standard dose of SRS-A and a medicated guinea pig receiving a multiple dose of SRS-A. In this manner, the ratios of peak responses of the same sample of SRS-A could be determined for medicated/control guinea pigs (standard procedure), and for medicated guinea pigs receiving the standard dose of SRS-A. The multiple dose of SRS-A in these studies was either 3× or 6× the standard dose.

SRS-A [5] = test: Test Procedure 1: antagonism of SRS-A-induced bronchoconstriction in unanesthetized guinea pigs; type: in vivo, guinea pig
Description: The test compounds were administered orally to four guinea pigs/group 1 hour before the SRS-A challenge. The test compounds were prepared as suspensions in 1% gum tragacanth. Bronchoconstriction was graded 1+ to 3+ according to severity (1+ denoted restlessness and slight thoracic dyspnea, 2+ denoted moderate thoracic dyspnea and 3+ denoted convulsive dyspnea, regardless of whether the guinea pig died of asphyxiation or recovered).

bradykinin [6] = test: animal or person; conditions: Cavia porcellus, iv, read-out: lowest dose that resulted in significant inhibition
Description: as §1

acetylcholine = test: Test Procedure 7: acetylcholine-induced bronchoconstriction in anesthetized guinea pigs; type: in vivo, guinea pig; conditions: 100 mg/kg p.o.
Description: Guinea pigs, weighing 250-350 g were anesthetized with 1.5 g/kg i.p. of urethane and prepared for measurements of resistance to pulmonary inflation using a slightly modified Konzett-Rossler preparation (see Test Procedure 2). Histamine phosphate (5 μg/kg as base) was injected four times at 5 minute intervals in order to ascertain that the maximum bronchoconstrictor responsiveness has been obtained. Acetylcholine was injected intravenously at […] 5 minutes following the last injection of histamine and the increase in intratracheal pressure was recorded. Compound b or aminophylline (100 mg/kg p.o.) or the control vehicle were administered to five guinea pigs each, 1 hour before the injection of acetylcholine (1/2 hour before the anesthesia).

histamine = test: Test Procedure 5: histamine-induced bronchoconstriction in anesthetized guinea pigs; type: in vivo, guinea pig
Description: Guinea pigs weighing 350 to 400 g were anesthetized ip with 1.5 g/kg urethane and prepared for measurements of resistance to pulmonary inflation using a slightly modified Konzett-Rossler method (see Test Procedure 2). […] The experimental procedure was started after each guinea pig had attained its maximal, repeatable response to histamine. […] Artificial respiration was resumed 25 minutes later. Thirty minutes after the administration of one of the drugs, tne guinea pigs received two of three injections of histamine at 3-minute intervals. The average of these histamine responses (increases in resistance) was expressed as percent of the maximal histamine response obtained with the same guinea pig before the administration of the drug. In addition to sc administration, compound b was also studied following po administration. In these studies, the time interval between po medication and the secondary histamine challenges was increased to 45 minutes.

SRS-A [7] = test: Test Procedure 3: SRS-A-induced increase in resistance to pulmonary inflation in anesthetized cats; type: in vivo, cat
Description: The trachea of each cat was cannulated, and the cats were artificially respired at 15 strokes/minute with a stroke volume of 22 ml/kg. A side-arm of the intratracheal cannula was connected to a Statham transducer, and the intratracheal pressure was recorded continuously on a polygraph. One femoral vein was cannulated in all cats receiving intravenous administration of drugs. In addition, most of the cats were cannulated through the femoral artery; this cannula was attached to another Statham transducer, and the blood pressure of these cats recorded. All cats received 1.0 mg/kg of propranolol and 0.2 mg/kg of thenyldiamine intravenously 3 minutes before iv injection of SRS-A. SRS-A was obtained from rat peritoneal cavities as described previously in Test Procedure 1. Each pool of rat ip fluid containing SRS-A was dose-ranged and a dose selected that was estimated to cause an average increase in intrapulmonary resistance to inflation in control cats by 4-6 mmHg. Test dose volumes ranged from 1.0 to 2.0 ml/kg, iv. […] Both test compounds and the sodium hydroxide vehicle were injected iv 5 minutes before the injections of SRS-A (2 minutes before the injection of propranolol and thenyldiamine).

SRS-A [8] = test: as above; type: in vivo, cat; remark: listed apart in the source
[9] = rat, in vivo, po, 640 mg/kg/day
[10] = rhesus monkey, in vivo, po, 200 mg/kg/day

## COc1ccc2c(c1)c1c(n2C(=O)c2ccccc2)CCC(C(=O)O)C1 (stereo not drawn) [Compound b, 9-benzoyl-6-methoxy-1,2,3,4-tetrahydrocarbazole-3-carboxylic acid]
[1]; oral 1280 mg/kg/day
  mortality: all rats died within 18 days
[1]; [9]
  growth rate: slightly depressed
  hematocrit: minimally lower than controls
  hemoglobin concentration: minimally lower than controls
  number of red blood cells: minimally lower than controls
[1]; rat, in vivo, po, 1280 mg/kg/day
  tolerability: not well tolerated
Bradykinin [2]; guinea pigs
  effect against bradykinin-induced bronchoconstriction (activity profile): effectiveness
Bradykinin [2]; iv
  inhibition of bradykinin-induced increases in bronchial resistance: inhibited bradykinin-induced increases in bronchial resistance to inflation in a dose-related manner
Bradykinin [2]; iv 0.33 mg/kg
  % Inhibition: 12%
  Average Increase In Bronchial Resistance (2nd Response in % of 1st Response ± S.E.): 76 ± 13%
Bradykinin [2]; iv 1.0 mg/kg
  % Inhibition: 48%
  Average Increase In Bronchial Resistance (2nd Response in % of 1st Response ± S.E.): 45 ± 7%
Bradykinin [2]; iv 3.3 mg/kg
  % Inhibition: 81%
  Average Increase In Bronchial Resistance (2nd Response in % of 1st Response ± S.E.): 16 ± 3%
Bradykinin [2]; iv 10.0 mg/kg
  % Inhibition: 84%
  Average Increase In Bronchial Resistance (2nd Response in % of 1st Response ± S.E.): 14 ± 5%
Bradykinin [2]; iv 33.0 mg/kg
  % Inhibition: 93%
  Average Increase In Bronchial Resistance (2nd Response in % of 1st Response ± S.E.): 6 ± 4%
Bradykinin [2]; iv 3.3, 10 and 33 mg/kg
  inhibition of bradykinin-induced bronchoconstriction: nearly complete inhibition
[3]; oral 5.0, 32.0 and 75.0 mg/kg/day, 5 weeks
  mortality: no mortality occurred
[3]; rhesus monkey, in vivo
  gross or microscopic histopathologic changes: No gross or microscopic histophathologic changes were found
[3]; [10]
  deaths attributed to medication: two deaths attributed to medication occurred
  tolerability: not well tolerated
SRS-A [4]; 2.0 mg/kg iv, SRS-A lot B, 6x dose 12 ml/kg
  Ratio of peak responses, medicated (high dose SRS-A)/controls: 2.14 ± .68 and 2.14
SRS-A [4]; 2.0 mg/kg iv, SRS-A lot B, standard dose 2 ml/kg
  Ratio of peak responses, medicated (low dose SRS-A)/controls: 0.14 ± 0.7 and 0.14
SRS-A [4]; 2.0 mg/kg iv, six-fold SRS-A dose
  % Inhibition: 0%
SRS-A [4]; 2.0 mg/kg iv, standard dose of SRS-A
  % Inhibition: 86%
SRS-A [4]; 3.3 mg/kg iv, SRS-A lot A, 3x dose 12 ml/kg
  Ratio of peak responses, medicated (high dose SRS-A)/controls: 0.76 ± .20 and 0.76
SRS-A [4]; 3.3 mg/kg iv, SRS-A lot A, standard dose 4 ml/kg
  Ratio of peak responses, medicated (low dose SRS-A)/controls: 0.12 ± 0.3 and 0.12
SRS-A [4]; 3.3 mg/kg iv, standard dose of SRS-A
  % Inhibition: 88%
SRS-A [4]; 3.3 mg/kg iv, three-fold SRS-A dose
  % Inhibition: 24%
SRS-A [4]; iv
  mode of antagonism to SRS-A: competitive antagonist to SRS-A
SRS-A [5]; 0.4 mg/kg p.o.
  Incidence of Severe Bronchospasms, %: 75%
  Incidence of Severe Bronchospasms, No. Bronchosp./No. Tested: 15/20
SRS-A [5]; 1.6 mg/kg p.o.
  Incidence of Severe Bronchospasms, %: 42%
  Incidence of Severe Bronchospasms, No. Bronchosp./No. Tested: 8/19
SRS-A [5]; 6.2 mg/kg oral
  inhibition of severe SRS-A induced bronchospasm: completely inhibited
SRS-A [5]; 6.2 mg/kg p.o.
  Incidence of Severe Bronchospasms, %: 0%
  Incidence of Severe Bronchospasms, No. Bronchosp./No. Tested: 0/19
SRS-A [5]; 25 mg/kg p.o.
  Incidence of Severe Bronchospasms, %: 4%
  Incidence of Severe Bronchospasms, No. Bronchosp./No. Tested: 1/23
SRS-A [5]; 100 mg/kg p.o.
  Incidence of Severe Bronchospasms, %: 0%
  Incidence of Severe Bronchospasms, No. Bronchosp./No. Tested: 0/20
SRS-A [5]; 400 mg/kg p.o.
  Incidence of Severe Bronchospasms, %: 0%
  Incidence of Severe Bronchospasms, No. Bronchosp./No. Tested: 0/10
SRS-A [5]; Cavia porcellus, po, 1 hour before SRS-A, read-out: AED50
  ED50: 2.3 mg/kg
SRS-A [5]; p.o., 1 hour before SRS-A
  Potency (Phenylbutazone = 1) (95% confidence limits): 4.0 (2.1-8.2)
Bradykinin [6]
  minimal effective dose: 1 mg/kg
acetylcholine
  % Inhibition: 9%
  Peak Increase in Intracheal Pressure, mm Hg: 21 ± 4 mm Hg
  effect against acetylcholine-induced bronchoconstriction: inactive; also recorded: ineffectiveness
histamine; guinea pigs
  effect against histamine-induced bronchoconstriction (activity profile): ineffectiveness
histamine; oral 100 mg/kg
  inhibition of histamine-induced bronchoconstriction: no significant inhibition
histamine; po 100 mg/kg
  % Inhibition: 16%
  Histamine-Response in % of Premed. Histamine Response: 84 ± 26%
histamine; sc 100 mg/kg
  % Inhibition: 8%
  Histamine-Response in % of Premed. Histamine Response: 92 ± 2%
  inhibition of histamine-induced bronchoconstriction: no significant inhibition
SRS-A [7]; Felis catus, 5 min, intravenous
  ED50: 0.028 ± 0.024 mg/kg
SRS-A [7]; intravenous 0.01 mg/kg
  Max. Increase in Resistance to Pulm. Inflation, mm Hg ± S.E.: 4.1 ± 1.3 mm Hg
SRS-A [7]; intravenous 0.1 mg/kg
  % Inhibition: 73%
SRS-A [7]; intravenous 1.0 mg/kg
  Max. Increase in Resistance to Pulm. Inflation, mm Hg ± S.E.: 0.1 ± 0.1 mm Hg
  inhibition of SRS-A-induced increase in resistance to inflation: complete inhibition
SRS-A [8]; intravenous 0.01 mg/kg
  % Inhibition: 30%
SRS-A [8]; intravenous 0.1 mg/kg
  Max. Increase in Resistance to Pulm. Inflation, mm Hg ± S.E.: 1.6 ± 0.5 mm Hg
SRS-A [8]; intravenous 1.0 mg/kg
  % Inhibition: 98%
  increase in resistance in one of seven cats: 0.5 mm Hg
SRS-A [8]; oral 0.33 mg/kg
  % Inhibition: 25%
  Max. Increase in Resistance to Pulm. Inflation, mm Hg ± S.E.: 3.1 ± 0.3 mm Hg
SRS-A [8]; oral 1.0 mg/kg
  % Inhibition: 49%
  Max. Increase in Resistance to Pulm. Inflation, mm Hg ± S.E.: 2.0 ± 0.8 mm Hg
SRS-A [8]; oral 3.3 mg/kg
  % Inhibition: 85%
  Max. Increase in Resistance to Pulm. Inflation, mm Hg ± S.E.: 0.6 ± 0.5 mm Hg
SRS-A [8]; oral 10.0 mg/kg
  % Inhibition: 98%
  Max. Increase in Resistance to Pulm. Inflation, mm Hg ± S.E.: 0.1 ± 0.1 mm Hg
